Test results: patent publication US11098032B2, “Pyran dervatives as CYP11A1 (cytochrome P450 monooxygenase 11A1) inhibitors” (ORION CORPORATION, priority 2016, dated 2021)

Molecular target: T1, CYP11A1 (Homo sapiens, UniProt P05108)
T1 construct: human H295R adrenocortical carcinoma cell line was used as source of enzyme; endogenous in cells; host or cells: H295R human adrenocortical carcinoma cells
T1 sequence (P05108 40-521): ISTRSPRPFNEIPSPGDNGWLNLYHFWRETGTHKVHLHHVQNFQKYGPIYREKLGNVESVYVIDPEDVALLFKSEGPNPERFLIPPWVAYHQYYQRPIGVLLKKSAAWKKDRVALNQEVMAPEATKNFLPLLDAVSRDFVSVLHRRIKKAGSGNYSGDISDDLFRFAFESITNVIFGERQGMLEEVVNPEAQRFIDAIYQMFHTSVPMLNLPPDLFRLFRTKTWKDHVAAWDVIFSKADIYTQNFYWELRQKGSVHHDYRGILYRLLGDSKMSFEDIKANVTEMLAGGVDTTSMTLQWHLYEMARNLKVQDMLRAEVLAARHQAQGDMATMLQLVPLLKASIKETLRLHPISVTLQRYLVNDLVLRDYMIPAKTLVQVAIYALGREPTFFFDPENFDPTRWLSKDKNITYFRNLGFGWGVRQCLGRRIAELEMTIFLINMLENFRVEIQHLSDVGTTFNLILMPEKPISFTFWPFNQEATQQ
Test: CYP11A1 inhibition: modified isocaproic acid release assay (IARA) in H295R cells
Format: cell-based
Details: human H295R adrenocortical carcinoma cells treated three days, 3 nM [24,25-3H]-labelled cholesterol, 1% DMSO, 10 concentrations in duplicates; read-out: IC50 of the test compounds on CYP11A1 inhibition
Outline: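 H295R adrenocortical cells treated three days with test compounds at 10 concentrations in duplicate plus 3 nM [24,25-3H]-cholesterol, 1% DMSO final. Released radiolabelled isocaproic acid measured by scintillation counting after dextran-coated charcoal extraction; IC50 determined.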

Row | IC50 | Structure (SMILES)
1 | 150 to 300 nM | CC(C)S(=O)(=O)N1CC=C(COc2coc(CN3Cc4ccccc4C3)cc2=O)CC1 [Compound 100, 2-(Isoindolin-2-ylmethyl)-5-((1-(isopropylsulfonyl)-1,2,3,6-tetrahydropyridin-4-yl)methoxy)-4H-pyran-4-one]
2 | 150 to 300 nM | CCS(=N)(=O)c1ccc(COc2coc(CN3Cc4ccccc4C3)cc2=O)cc1 (stereo not shown) [Compound 101, 5-((4-(Ethylsulfonimidoyl)benzyl)oxy)-2-(isoindolin-2-ylmethyl)-4H-pyran-4-one]
3 | 150 to 300 nM | CCS(=N)(=O)c1ccc(COc2coc(CN3Cc4ccc(F)cc4C3)cc2=O)cc1 (stereo not shown) [Compound 102, 5-((4-(Ethylsulfonimidoyl)benzyl)oxy)-2-((5-fluoroisoindolin-2-yl)methyl)-4H-pyran-4-one]
4 | < 150 nM | CC(C)S(=N)(=O)c1ccc(COc2coc(CN3Cc4ccccc4C3)cc2=O)cc1 (stereo not shown) [Compound 103, 2-(Isoindolin-2-ylmethyl)-5-((4-(propan-2-ylsulfonimidoyl)benzyl)oxy)-4H-pyran-4-one]
5 | < 150 nM | CS(=O)(=O)N1CCC(COc2coc(CN3Cc4ccccc4C3)cc2=O)=C(F)C1 [Compound 104, 5-((5-Fluoro-1-(methylsulfonyl)-1,2,3,6-tetrahydropyridin-4-yl)methoxy)-2-(isoindolin-2-ylmethyl)-4H-pyran-4-one]
6 | 301 to 2000 nM | O=c1cc(CN2Cc3ccccc3C2)occ1OCc1cccc([N+](=O)[O-])c1 [Compound 105, 2-(Isoindolin-2-ylmethyl)-5-((3-nitrobenzyl)oxy)-4H-pyran-4-one]
7 | 301 to 2000 nM | CN1Cc2cc(COc3coc(CN4Cc5ccccc5C4)cc3=O)ccc2C1=O [Compound 106, 5-(((6-(Isoindolin-2-ylmethyl)-4-oxo-4H-pyran-3-yl)oxy)methyl)-2-methyl-isoindolin-1-one]
8 | 150 to 300 nM | O=c1cc(CN2Cc3ccccc3C2)occ1OCc1ccc(-n2ccnn2)cc1 [Compound 107, 5-((4-(1H-1,2,3-triazol-1-yl)benzyl)oxy)-2-(isoindolin-2-ylmethyl)-4H-pyran-4-one]
9 | 150 to 300 nM | O=c1cc(CN2Cc3ccccc3C2)occ1OCc1ccc(-n2cccn2)cc1 [Compound 108, 5-((4-(1H-Pyrazol-1-yl)benzyl)oxy)-2-(isoindolin-2-ylmethyl)-4H-pyran-4-one]
10 | < 150 nM | O=c1cc(CN2Cc3ccccc3C2)occ1OCc1ccc(-c2ncco2)cc1 [Compound 109, 2-(Isoindolin-2-ylmethyl)-5-((4-(oxazol-2-yl)benzyl)oxy)-4H-pyran-4-one]
11 | 301 to 2000 nM | COc1cc(COc2coc(CN3Cc4ccccc4C3)cc2=O)ccn1 [Compound 110, 2-(Isoindolin-2-ylmethyl)-5-((2-methoxypyridin-4-yl)methoxy)-4H-pyran-4-one]
12 | < 150 nM | O=c1cc(CN2Cc3ccccc3C2)occ1OCc1ccc(C2(O)CCC2)cc1 [Compound 111, 5-((4-(1-Hydroxycyclobutyl)benzyl)oxy)-2-(isoindolin-2-ylmethyl)-4H-pyran-4-one]
13 | 301 to 2000 nM | CN(C)C(=O)c1ccc(CCOc2coc(CN3Cc4ccccc4C3)cc2=O)cc1 [Compound 112, 4-(2-((6-(Isoindolin-2-ylmethyl)-4-oxo-4H-pyran-3-yl)oxy)ethyl)-N,N-dimethylbenzamide]
14 | < 150 nM | CS(=O)(=O)NCc1ccc(COc2coc(CN3Cc4ccccc4C3)cc2=O)cc1 [Compound 113, N-(4-(((6-(Isoindolin-2-ylmethyl)-4-oxo-4H-pyran-3-yl)oxy)methyl)benzyl)-methanesulfonamide]
15 | < 150 nM | O=c1cc(CN2Cc3ccccc3C2)occ1OCc1ccc(C2(O)COC2)cc1 [Compound 114, 5-((4-(3-Hydroxyoxetan-3-yl)benzyl)oxy)-2-(isoindolin-2-ylmethyl)-4H-pyran-4-one]
16 | < 150 nM | O=c1cc(CN2Cc3ccc(F)cc3C2)occ1OCc1ccc(C2(O)COC2)cc1 [Compound 115, 2-((5-Fluoroisoindolin-2-yl)methyl)-5-((4-(3-hydroxyoxetan-3-yl)benzyl)oxy)-4H-pyran-4-one]
